According to patent publication US20190202799A1, “IMIDAZOLE DERIVATIVES AND THEIR USE IN THE TREATMENT OF AUTOIMMUNE OR INFLAMMATORY DISEASES OR CANCERS” (GLAXOSMITHKLINE INTELLECTUAL PROPERTY (No.2) LIMITED, priority 2016, published 2019):

Test system: MCP-1 production
Assay: LPS induced MCP-1 production from human whole blood
Assay type: cell-based
Conditions: LPS 200 ng/mL, 18-24 hours, read-out: mean pIC50, LPS induced MCP-1 production (converted)
Description: Activation of monocytic cells by agonists of toll-like receptors such as bacterial lipopolysaccharide (LPS) results in production of key inflammatory mediators including MCP-1. Such pathways are widely considered to be central to the pathophysiology of a range of auto-immune and inflammatory disorders.
Blood is collected in a tube containing Sodium heparin (Leo Pharmaceuticals) (10 units of heparin/mL of blood). 96-well compound plates containing 0.5 μL test sample (compound) in 100% DMSO were prepared (two replicates on account of donor variability). 130 μL of whole blood was dispensed into each well of the 96-well compound plates and incubated for 30 min at 37° C., 5% CO2. 10 μL of lipopolysaccharide (from Salmonella typhosa; L6386) made up in PBS (200 ng/mL final assay concentration) was added to each well of the compound plates. The plates were then placed in the humidified primary cell incubator for 18-24 hours at 37° C., 5% CO2. 140 μL of PBS was added to all wells of the compound plates containing blood. The plates were then sealed and centrifuged for 10 mins at 2500 rpm (r.t). […] 150 μL of 2×MSD Read Buffer T (stock 4×MSD Read Buffer T was diluted 50:50 with de-ionised water) was then added to each well and the plates read on the MSD Sector Imager 6000. Concentration response curves for each compound were generated from the data and an IC50 value was calculated.

`Cc1cc(-c2nc(C(=O)O)cn2Cc2ccccc2)cn(C)c1=O` [Example 34, 1-benzyl-2-(1,5-dimethyl-6-oxo-1,6-dihydropyridin-3-yl)-1H-imidazole-4-carboxylic acid] showed an IC50 greater than 20 µM.
